Earlier results, collected in patent US20220168251A1, “PROCESS FOR PRODUCTION OF A NANO-MICROEMULSION SYSTEM OF FERULIC” (priority 2020, published 2022).

System: hypertensive rats
Conditions: 8 weeks of treatment

COc1cc(/C=C/C(=O)O)ccc1O [ferulic acid, Ferulic acid]
blood flow to kidney: improvement
left ventricular stiffness in heart: decrease
systolic blood pressure: significant decrease
